Target: T1, PARK7 (Homo sapiens, UniProt Q99497)
T1 sequence (Q99497 1-189): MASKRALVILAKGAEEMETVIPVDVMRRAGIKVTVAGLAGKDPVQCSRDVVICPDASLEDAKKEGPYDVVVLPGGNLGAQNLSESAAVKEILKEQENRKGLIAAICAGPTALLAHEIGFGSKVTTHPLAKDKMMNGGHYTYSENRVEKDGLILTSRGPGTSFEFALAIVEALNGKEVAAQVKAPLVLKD
Experiment: High-throughput screen of the crude compound library, PARK7 fluorescence polarization (FP) assay with FP reagent JYQ-107
Type: biochemical
Conditions: 1.25 µM, crude compound library, FP reagent JYQ-107; read-out: HTS FP assay %Inhibition (1.25 µM)

| Compound | inhibition at 1.25 µM [%] |
| --- | --- |
| N#CN1CC[C@@H](C(=O)Nc2nc3c(s2)CN(C(=O)c2ccccc2I)CC3)C1 [compound 391] | 73.6 |
| N#CN1CC[C@@H](C(=O)Nc2nc3c(s2)CN(C(=O)c2ccc4c(c2)OCO4)CC3)C1 [compound 470] | 78.4 |
| N#CN1CC[C@@H](C(=O)Nc2nc3c(s2)CN(C(=O)c2sccc2Br)CC3)C1 [compound 421] | 79.7 |
| N#CN1CC[C@@H](C(=O)Nc2nc3c(s2)CN(C(=O)c2cccc(C=O)c2)CC3)C1 [compound 433] | 81.4 |
| CC1=NN(c2cccc(Br)c2)C(=O)C1CC(=O)N1CCc2nc(NC(=O)[C@@H]3CCN(C#N)C3)sc2C1 (stereo partly drawn) [compound 364] | 73 |
| N#CN1CC[C@@H](C(=O)Nc2nc3c(s2)CN(C(=O)c2cnccn2)CC3)C1 [compound 402] | 85.1 |

Same assay, conditions: 1.25 µM, crude compound library; read-out: HTS FP assay %Inhibition (1.25 µM)

| Compound | inhibition at 1.25 µM [%] |
| --- | --- |
| Cc1ccc(C=CS(=O)(=O)N2CCC(C(=O)N3CCc4nc(NC(=O)[C@@H]5CCN(C#N)C5)sc4C3)CC2)cc1 [compound 344] | 72 |
| N#CN1CC[C@@H](C(=O)Nc2nc3c(s2)CN(C(=O)c2cccc(N4CCOCC4)n2)CC3)C1 [compound 277] | 64.6 |
| N#CN1CC[C@@H](C(=O)Nc2nc3c(s2)CN(C(=O)C(Cc2c[nH]cn2)NS(=O)(=O)c2ccc(Cl)cc2)CC3)C1 (stereo partly drawn) [compound 7] | 67.3 |
| CN1CCN(c2ccccc2C(=O)N2CCc3nc(NC(=O)[C@@H]4CCN(C#N)C4)sc3C2)CC1 [compound 17] | 51.2 |
| Cc1onc(C(=O)N2CCc3nc(NC(=O)[C@@H]4CCN(C#N)C4)sc3C2)c1CN1CCOCC1 [compound 281] | 62.3 |
| N#CN1CC[C@@H](C(=O)Nc2nc3c(s2)CN(C(=O)C2(c4cccs4)CC2)CC3)C1 [compound 138] | 81.9 |
| COc1ccc(N2CCN(C(C)C(=O)N3CCc4nc(NC(=O)[C@@H]5CCN(C#N)C5)sc4C3)CC2)cc1 (stereo partly drawn) [compound 46] | 71.3 |
| N#CN1CC[C@@H](C(=O)Nc2nc3c(s2)CN(C(=O)c2csc(-c4ccc(Br)s4)n2)CC3)C1 [compound 208] | 86.4 |
| Cc1nnnn1-c1cc(C(=O)N2CCc3nc(NC(=O)[C@@H]4CCN(C#N)C4)sc3C2)cc(C(F)(F)F)c1 [compound 87] | 86.5 |
| N#CN1CC[C@@H](C(=O)Nc2nc3c(s2)CN(C(=O)[C@@H]2C[C@H]2c2ccco2)CC3)C1 [compound 32] | 87 |
| N#CN1CC[C@@H](C(=O)Nc2nc3c(s2)CN(C(=O)Cc2csc(-n4cccc4)n2)CC3)C1 [compound 99] | 86.7 |
| N#CN1CC[C@@H](C(=O)Nc2nc3c(s2)CN(C(=O)c2ccc(-c4ccccc4)o2)CC3)C1 [compound 166] | 87.3 |
| Cn1nccc1[C@@H]1OCCC[C@H]1C(=O)N1CCc2nc(NC(=O)[C@@H]3CCN(C#N)C3)sc2C1 [compound 80] | 68.5 |
| N#CN1CC[C@@H](C(=O)Nc2nc3c(s2)CN(C(=O)c2ccc(OCc4ccncc4)cc2)CC3)C1 [compound 21] | 59.5 |
| Cc1cc(C(=O)N2CCc3nc(NC(=O)[C@@H]4CCN(C#N)C4)sc3C2)c(C)n1C1CC1 [compound 155] | 47.7 |
| N#CN1CC[C@@H](C(=O)Nc2nc3c(s2)CN(C(=O)c2occc2COc2ccccc2)CC3)C1 [compound 111] | 82.9 |
| N#CN1CC[C@@H](C(=O)Nc2nc3c(s2)CN(C(=O)c2ncoc2-c2cccs2)CC3)C1 [compound 10] | 77.3 |
| N#CN1CC[C@@H](C(=O)Nc2nc3c(s2)CN(C(=O)c2c(-c4ccccc4)noc2C(F)F)CC3)C1 [compound 93] | 60.9 |
| N#CN1CC[C@@H](C(=O)Nc2nc3c(s2)CN(C(=O)c2cc(-c4ccc(Cl)cc4)oc2C(F)(F)F)CC3)C1 [compound 49] | 70.8 |
| N#CN1CC[C@@H](C(=O)Nc2nc3c(s2)CN(C(=O)c2ncoc2-c2ccco2)CC3)C1 [compound 62] | 78.9 |
| N#CN1CC[C@@H](C(=O)Nc2nc3c(s2)CN(C(=O)c2cnc(COc4ccccc4)s2)CC3)C1 [compound 70] | 85.9 |
